This note sets out measurements from ChEMBL document CHEMBL1151594, “Aromatic guanyl hydrazones: Synthesis, structural studies and in vitro activity against Trypanosoma cruzi” (1995).

Each structure is given as a SMILES string.

Common to all, as to type: functional
Test [1] relates to Trypanosoma cruzi. Description: In vitro inhibitory activity against trypomastigote form of Trypanosoma Cruzi. To be noted: read-out: ID50 (the source's name).
The species named for test [2] is Mus musculus. Nature of the test: Effect on lysis of erythrocytes after 24 hr at 4 degree centigrade; Value given as 500-600.
The species named for test [3] is Mus musculus. Description: Effect on lysis of erythrocytes after 24 hr at 4 degree centigrade; Value given as 150-200.
For test [4], the species on record is Mus musculus. Nature of the test: Effect on lysis of erythrocytes after 24 hr at 4 degree centigrade; Value given as 700-1000.
The species entered for test [5] is Mus musculus. Description: Effect on lysis of erythrocytes after 24 hr at 4 degree centigrade; Value given as 250-300.
The species named for test [6] is Mus musculus. Description: Effect on lysis of erythrocytes after 24 hr at 4 degree centigrade; Value given as 75-100.
The species entered for test [7] is Mus musculus. Description: Effect on lysis of erythrocytes after 24 hr at 4 degree centigrade; Value given as 300-400.
The species entered for test [8] is Mus musculus. Description: Effect on lysis of erythrocytes after 24 hr at 4 degree Centigrade.
Test [9] is filed under the species Mus musculus. Nature of the test: Effect on lysis of erythrocytes after 24 hr at 4 degree centigrade; Value given as 40-50.
The species named for test [10] is Mus musculus. Nature of the test: Effect on lysis of erythrocytes after 24 hr at 4 degree centigrade; Value given as 500-700.
For test [11], the species on record is Mus musculus. Description: Effect on lysis of erythrocytes after 24 hr at 4 degree centigrade; Value given as 50-75.
Test [12] is filed under the species Mus musculus. Nature of the test: Effect on lysis of erythrocytes after 24 hr at 4 degree centigrade; Value given as 100-150.
The species entered for test [13] is Mus musculus. Nature of the test: Effect on lysis of erythrocytes after 24 hr at 4 degree centigrade; Value given as 1200-1400.
For test [14], the species on record is Mus musculus. Description: Effect on lysis of erythrocytes after 24 hr at 4 degree centigrade; Value given as 400-500.

On to `COc1cc(/C=N/NC(=N)N)ccc1O`, for which the IC50 in [1] was greater than 4800 µM.
In the case of `CN(C)c1ccc(/C=N/NC(=N)N)cc1.Cl`, the IC50 in test [1] was determined as 202 µM. Moreover, the Total lysis in test [2] was 500 µM.
On to `COc1ccc(OC)c(/C=N/NC(=N)N)c1.Cl`, for which the IC50 in [1] was 41.4 µM. For the same compound, in test [3], the Total lysis was determined as 150 µM.
In turn, `Cl.N=C(N)N/N=C/c1ccc2c(c1)OCO2` came in with a Total lysis in test [4] of 700 µM.
For `Cc1ccc(/C=N/NC(=N)N)cc1.Cl`, the IC50 in test [1] was found to be 103 µM. The Total lysis in [5] was 250 µM.
For `COc1cccc(/C=N/NC(=N)N)c1OC.Cl`, the Total lysis in [6] came out at 75 µM.
Consider `CCOc1ccccc1/C=N/NC(=N)N.Cl`, for which the IC50 in test [1] came to 34.7 µM. In [6], this compound returned a Total lysis of 75 µM.
Consider `Cl.N=C(N)N/N=C/c1ccccc1O`, for which the IC50 in [1] was 166 µM. This compound also had a Total lysis in test [7] of 300 µM.
In the case of `Cl.N=C(N)N/N=C/c1ccccc1N`, the IC50 in test [1] stood at 261 µM. The Total lysis in test [2] was 500 µM.
As to `Cl.N=C(N)N/N=C/c1cccc([N+](=O)[O-])c1O`, the IC50 in test [1] stood at 876 µM. This compound registered a Total lysis in test [8] greater than 1400 µM.
Regarding `Cl.N=C(N)N/N=C/c1ccc([N+](=O)[O-])cc1`, the IC50 in test [1] is 55.9 µM. In [3], this compound registered a Total lysis of 150 µM.
In the case of `Cl.N=C(N)N/N=C/c1cc2c(cc1[N+](=O)[O-])OCO2`, the IC50 in test [1] worked out at 17.1 µM. In addition, the Total lysis in [9] came to 40 µM.
Consider `Cl.N=C(N)N/N=C/c1cccc([N+](=O)[O-])c1`, for which, in [1], the IC50 came to 183 µM. In addition, in test [10], the Total lysis was found to be 500 µM.
`Cl.N=C(N)N/N=C/c1cc2c(cc1Br)OCO2` gave a Total lysis in test [11] of 50 µM.
Consider `Cl.N=C(N)N/N=C/c1ccccc1[N+](=O)[O-]`, for which the IC50 in test [1] stood at 87.5 µM. Also, the Total lysis in test [3] is 150 µM.
In test [12], `Cl.N=C(N)N/N=C/c1ccc(Cl)cc1` came in with a Total lysis of 100 µM.
Take `CN(C)c1ccc(C(=C2C=CC(=[N+](C)C)C=C2)c2ccc(N(C)C)cc2)cc1` [GENTIAN VIOLET]: the IC50 in test [1] came to 536 µM.
As for `CCOc1cccc(/C=N/NC(=N)N)c1O.Cl`, the IC50 in test [1] came to 97.8 µM. Also, in test [3], the Total lysis was determined as 150 µM.
On to `Cl.N=C(N)N/N=C/c1cc2c(cc1N)OCO2`, for which the IC50 in test [1] is 221 µM. This compound also displayed a Total lysis in test [2] of 500 µM.
On to `COc1ccccc1/C=N/NC(=N)N.Cl`, for which the IC50 in test [1] came to 86.3 µM. The Total lysis in test [3] is 150 µM.
As for `COc1ccc(/C=N/NC(=N)N)c(OC)c1.Cl`, the IC50 in test [1] is 33.8 µM. In test [12], the Total lysis is 100 µM.
`Cl.N=C(N)N/N=C/c1ccc(C(=O)O)cc1`: in test [1], the IC50 was 573 µM. Further, in test [13], the Total lysis was determined as 1200 µM.
`Cl.N=C(N)N/N=C/c1ccccc1` yielded a Total lysis in test [14] of 400 µM.
